Measured values from patent US6849607B2, “Galectin recognized photosensitizers for photodynamic therapy” (Health Research, Inc., priority 2001, dated 2005).

Key:
[1] = test system: Molt-4 human leukemic T-cells; assay: In vitro photosensitizing efficacy in Molt-4 cells (MTT); type: cell-based; conditions: Molt-4 cells; for effect of free lactose on PDT efficacy of the photosensitizer: photosensitizer with lactose in a ratio of 1:100, without washing
Method: Both cell lines are known to have some expression for Galectin-1 ([…]., Baum, L. G. and Brewer, C. F., Multivalent Protein-carbohydrate Interactions. A New […] for Super Molecular Assembly and Signal Transduction, Biochemistry, 40:3009-3015, 2001). The Molt-4 cells were grown in RPMI 1640 5% FCS (Fetal calf serum) in 100% humidity with 5% CO2. Cells were transferred to phenol red free (PRF) RPMI 1640 media with 1% FCS and plated at 2.5×10^4 cells/well. After 3 hours incubation in the dark, the cells were washed once with PBS and re-suspended in prf RPMI 1640 with 1% FCS. These cells were then illuminated with a […] Quartz Halogen Lamp with IR and bandpass dichroic filters to allow light between 400 nm-700 nm, at a dose rate of 16 mW/cm^2 at 695 nm. The RIF tumor cells were grown in alpha-DMEM with 10% fetal calf serum, penicillin and streptomycin. Cells were maintained in 5% CO2, 95% air and 100% humidity. […] After overnight incubation to allow the cells to attach the photosensitizers 14 were individually added at variable concentrations. After a 3 hr incubation in the dark at 37° C., the cells were washed once with PBS, then irradiated with the same light source as above (Molt-4 procedure), and the optimal cell kill was obtained at a concentration of 1.0 μM. After PDT the cells were washed once and placed in complete media and incubated for 48 hrs. […] Louis, Mo.) was added to each well (Kessel, D., Luo, Y., Photodynamic Therapy: A Mitochondrial Inducer of Apoptosis, Cell Death Differ. 6:28-35, 1999; MacDonald, I., Morgan, […]., Litchfield, D. J. Dougherty, T. J., Subcellular Localization Patterns and their Relationship to Photodynamic Activity of Pyropheophorbide-a Derivatives, Photochem. Photobiol., 70, 789-997, 1999). After 4 hr incubation at 37° C. the MTT+media were removed and 100 μl DMSO was added to solubilize the formazin crystals. The 96-well plate was read on a microtiter plate reader (Miles Inc. Titertek Multiscan Plus MK II) at an absorbance of 560 nm. The results were plotted as percent survival of the corresponding dark (drug no light) control for each compound tested. Each data point represents the mean from 3 separate experiments, and the error bars are the standard deviation. Each experiment was done with 5 replicate wells. […] The cells were then washed once with phosphate buffer saline (PBS), carbohydrate conjugates were then added, and the cells were again incubated for an additional 3 hrs. After treating with light, the cells were re-suspended in fresh media and incubated for 48 hrs. MTT was added to the cells and incubated for an additional 4 hrs. Dimethylsulfoxide (100 μl) was then added to each well to dissolve the formazin crystals. The plates were read on a 96 well plate reader at an absorbance of 560 nm. The data are in replicates of 6 wells and are normalized to control cells (light, no drug). In another set of experiments, a similar procedure was followed, except, the cells were not washed before the light treatment. […] Louis, Mo.) was added to the cells and incubated for an additional 4 hrs. Dimethylsulfoxide (100 μl) was then added to each well to dissolve the formazin crystals. The plates were read on a 96 well plate reader (Miles Inc. Titertek Multiscan Plus MK II) at an absorbance of 560 nm. The data are in replicates of 6 wells and are normalized to control cells (light, no drug).

[2] = test system: radiation induced fibrosarcoma (RIF) tumor cell; assay: In vitro photosensitizing activity in RIF tumor cells (MTT); type: cell-based; conditions: 2.0 μM, light dose of 4 J/cm2
Method: Both cell lines are known to have some expression for Galectin-1 (Sacchettini, J. C., Baum, L. G. and Brewer, C. F., Multivalent Protein-carbohydrate Interactions. A New Paradiagm for Super Molecular Assembly and Signal Transduction, Biochemistry, 40:3009-3015, 2001). The Molt-4 cells were grown in RPMI 1640 5% FCS (Fetal calf serum) in 100% humidity with 5% CO2. Cells were transferred to phenol red free (PRF) RPMI 1640 media with 1% FCS and plated at 2.5×10^4 cells/well. After 3 hours incubation in the dark, the cells were washed once with PBS and re-suspended in prf RPMI 1640 with 1% FCS. These cells were then illuminated with a 1000W Quartz Halogen Lamp with IR and bandpass dichroic filters to allow light between 400 nm-700 nm, at a dose rate of 16 mW/cm^2 at 695 nm. The RIF tumor cells were grown in alpha-DMEM with 10% fetal calf serum, penicillin and streptomycin. Cells were maintained in 5% CO2, 95% air and 100% humidity. For determining the PDT efficacy, these cells were plated in 96-well plates and a density of 1×10^4 cells well in complete media. After overnight incubation to allow the cells to attach the photosensitizers 14 were individually added at variable concentrations. After a 3 hr incubation in the dark at 37° C., the cells were washed once with PBS, then irradiated with the same light source as above (Molt-4 procedure), and the optimal cell kill was obtained at a concentration of 1.0 μM. After PDT the cells were washed once and placed in complete media and incubated for 48 hrs. […] The 96-well plate was read on a microtiter plate reader (Miles Inc. Titertek Multiscan Plus MK II) at an absorbance of 560 nm. […]

Compound | in vitro photosensitizing efficacy (in words) ([1]; 2.0 μM, 2a, 3a compared to 1a, 4a compared to 2a and 3a) | effect of free lactose on PDT efficacy of the photosensitizer [1] | cell kill [2]
C=C(C=CCO[C@@H]1O[C@H](CO)[C@@H](O[C@@H]2O[C@H](CO)[C@H](O)[C@H](O)[C@H]2O)[C@H](O)[C@H]1O)CN1C(=O)c2c3nc(cc4[nH]c(cc5nc(cc6[nH]c2c(c6C)C1=O)C(CC)=C5C)c(CC)c4C)C(C)C3CCC(=O)OC (mixture of isomers) [4a, Lactose-Chlorin conjugate joined with diene linkage] | better pbotosensitizer | complete inhibition in PDT efficacy | 100%
Mesopurpurin-18-N-methyl-(2′-butadiene)imide [1a] | – | did not produce any change in photocytotoxic ability | approximately 40%
